From ChEMBL document CHEMBL3407497, “Discovery of small molecule inhibitors to Krüppel-like factor 10 (KLF10): implications for modulation of T regulatory cell differentiation” (J Med Chem, 2015)
The source made the active and inactive calls. The rule behind the calls is not given here.

Legend:
T-cell [1] = assay: Inhibition of mouse T regulatory cell differentiation assessed as inhibition of TGFbeta1-induced conversion of CD4(+) and CD25(-) cells to CD4(+) and CD25(+) cells incubated for 3 days by flow cytometry; format: functional
[2] = target: T1, Krueppel-like factor 10 (Homo sapiens) (UniProt Q13118); assay: Inhibition of KLF10 (unknown origin) binding to DNA at 8 uM incubated for 4 hrs followed by biotin-labeled probes addition and incubated for another 1 hr by electromobility gel shift assay
T1 sequence (whole entry): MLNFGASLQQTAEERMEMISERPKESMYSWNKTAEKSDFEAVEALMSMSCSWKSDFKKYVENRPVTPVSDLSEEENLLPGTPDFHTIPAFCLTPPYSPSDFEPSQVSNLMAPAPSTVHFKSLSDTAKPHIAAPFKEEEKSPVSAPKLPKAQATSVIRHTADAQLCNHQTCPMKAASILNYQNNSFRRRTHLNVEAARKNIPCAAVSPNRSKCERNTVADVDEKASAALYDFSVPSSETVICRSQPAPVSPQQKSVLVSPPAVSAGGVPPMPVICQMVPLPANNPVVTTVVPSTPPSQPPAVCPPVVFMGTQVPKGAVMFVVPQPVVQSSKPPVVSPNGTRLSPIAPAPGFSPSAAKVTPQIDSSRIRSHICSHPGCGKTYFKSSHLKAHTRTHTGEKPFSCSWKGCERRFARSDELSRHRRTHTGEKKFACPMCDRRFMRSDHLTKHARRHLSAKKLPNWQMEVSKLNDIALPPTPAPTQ

T-cell [3] = assay: Inhibition of Foxp3 gene expression in mouse T regulatory cells at 50 uM measured during TGFbeta1-induced conversion of CD4(+) and CD25(-) cells to CD4(+) and CD25(+) cells incubated for 3 days by real-time quantitative PCR method; format: functional; conditions: 72 h
[4] = Inhibition of zinc finger protein C7 (unknown origin) assessed as reduction in transcriptional activity by luciferase reporter gene assay relative to untreated control; parameters: species or system Homo sapiens
[5] = target: Krueppel-like factor 1 (Homo sapiens) (UniProt Q13351); assay: Inhibition of KLF1 (unknown origin) binding to DNA at 8 uM incubated for 4 hrs followed by biotin-labeled probes addition and incubated for another 1 hr by electromobility gel shift assay
[6] = target: Krueppel-like factor 1 (Homo sapiens) (UniProt Q13351); assay: Inhibition of KLF1 (unknown origin) binding to DNA at 40 uM incubated for 4 hrs followed by biotin-labeled probes addition and incubated for another 1 hr by electromobility gel shift assay
[7] = target: T1, Krueppel-like factor 10 (Homo sapiens); assay: Inhibition of KLF10 (unknown origin) binding to DNA at 40 uM incubated for 4 hrs followed by biotin-labeled probes addition and incubated for another 1 hr by electromobility gel shift assay
Krueppel-like factor 10 = target: T2, Krueppel-like factor 10 (Homo sapiens, UniProt Q13118); assay: Inhibition of human KLF10 expressed in human HeLa cells assessed as reduction in transcriptional activity after 24 hrs by CACCC-responsive promoter driven TK-luciferase reporter gene assay; format: cell-based
T2 sequence (Q13118 whole entry): T1 sequence (whole entry)

HEK293 = assay: Inhibition of GLI (unknown origin) expressed in HEK293 cells assessed as reduction in GLI-mediated transcription at 30 uM; format: cell-based; conditions: Homo sapiens

Krueppel-like factor 1 (Homo sapiens), sequence (Q13351 whole entry): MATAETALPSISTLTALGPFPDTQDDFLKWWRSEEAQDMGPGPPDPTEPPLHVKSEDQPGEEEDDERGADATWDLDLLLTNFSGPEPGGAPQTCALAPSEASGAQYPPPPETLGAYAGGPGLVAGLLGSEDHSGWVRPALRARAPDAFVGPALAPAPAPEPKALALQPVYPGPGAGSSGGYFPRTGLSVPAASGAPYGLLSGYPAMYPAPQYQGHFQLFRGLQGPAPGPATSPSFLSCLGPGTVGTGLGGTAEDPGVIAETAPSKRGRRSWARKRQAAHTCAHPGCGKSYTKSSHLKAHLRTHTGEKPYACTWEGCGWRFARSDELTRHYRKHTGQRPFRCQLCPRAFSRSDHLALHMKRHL

Row | inhibition [2] [%] | inhibition [5] | inhibition [6] | inhibition [7] [%] | Compound | inhibition (INH) (T-cell [1]) [%] | inhibition at 50 µM (T-cell [3]) [%] | inhibition (HEK293) | further results
1 | 25 |  |  |  | Cc1sc2nc(SCC(=O)c3ccc(O)c(O)c3)[nH]c(=O)c2c1C | 29.2 | 90.8 |  | 
2 |  |  |  |  | c1ccc2[nH]c(-c3ccnc4ccccc34)nc2c1 |  |  |  | EC50 [4]: 35 µM
3 | 12 | inactive | inactive | 45 | COc1ccc(C(=O)COC(=O)c2cc(C)ccc2O)cc1 | 59.1 | 82.5 |  | IC50 (Krueppel-like factor 10): 40 µM
4 | 11 | inactive | inactive | 25 | Cc1ccc(OCC(=O)c2cc(C)c(O)cc2O)cc1 |  | 84.7 |  | 
5 |  |  |  |  | CN(C)c1ccccc1CN1CCCN(Cc2ccccc2N(C)C)C1c1ccncc1 |  |  | Active | 
6 |  |  |  |  | c1cc(-c2sc(-c3ccncc3)c(-c3ccncc3)c2-c2ccncc2)ccn1 |  |  | Active | 
